Reference: patent US20250333437A1, “USE OF NON-INFORMAT[…] CHAINS TO MODIFY THE […] PEPTIDES” (priority 2022, published 2025)

Experiment: Solubility of the poison ivy antigen in water and ethanol
Assay type: physicochemical
Text: The present inventors discovered the phenomenon of tissue deposition by precipitation (TDBP) with an allergy vaccine that was a catechol and naturally had the requisite solubility properties to achieve TDBP. In particular, the poison ivy antigen that induced tolerance when precipitated in muscle by precipitation is a catechol which is naturally insoluble in water and for which effective doses are soluble in small volumes of the pharmaceutically acceptable water-miscible solvent ethanol. The inventors termed the phenomenon vaccine delivery by precipitation (VDBP) which is a preferred embodiment of TDBP and they interpreted its probable mechanism of action.
FIG. 1 is a graphic representation of the function of the adaptive immune system in the skin, reproduced from Teunissen on intradermal immunization. It is a cartoon of how immunomodulation takes place. […] These recognize and take up molecules or particles of an antigen which they then present to naive T lymphocytes which then mature along one of what are shown here as seven different pathways. The location is the cortex of a lymph node. Dendritic cells (DC's) from either homeostatic or inflamed tissue present antigenic epitopes in their MHC Class Il molecular grooves, to naive T lymphocytes (Tn). […]

urushiol [poison ivy antigen]
solubility in ethanol (effective doses in small volumes of ethanol): soluble | solubility in water (water): insoluble
